Measurements from patent US11851391B2, “Antifungal compounds and methods of forming the same” (University of Kentucky Research Foundation, priority 2018, dated 2023).
“Also recorded” adds a separate entry of the source.

What was measured:
[1] = system: various yeast strains and filamentous fungi (strains A-M); assay: Antifungal activity over the whole panel (summary of MIC data); format: cell-based, Candida and Aspergillus strains; conditions: over the fungal strains tested, based on MIC data of Table 1
Experimental: The activity of N,N′-diaryl-bishydrazones 7-22 was tested against a panel of seven strains of C. albicans: ATCC 10231(R) (A), ATCC 64124(R) (B), ATCC MYA-2876(S) (C), ATCC 90819(R) (D), ATCC MYA-2310(S) (E), ATCC MYA-1237(R) (F), and ATCC MYA-1003(R) (G). The activity of these bishydrazones 7-22 was also explored against a panel of three non-albicans Candida strains: C. glabrata ATCC 2001 (H), C. krusei ATCC 6258 (I), and C. parapsilosis ATCC 22019 (J). Finally, the activity of these bishydrazones 7-22 was explored against three Aspergillus strains: A. flavus ATCC MYA-3631 (K), A. nidulans ATCC 38163 (L), and A. terreus ATCC MYA-3633 (M).
The MIC values of compounds 7a-24c against yeast cells (strains A-J) were determined in 96-well plates as described in the CLSI document M27-A3 with minor modifications. A single colony of freshly prepared yeast cells was used to inoculate 5 mL of yeast extract peptone dextrose (YPD) broth prior to incubation overnight with shaking at 200 rpm at 35° C. From the actively growing yeast culture, 100 μL were then transferred to 900 μL of sterile ddH2O and re-adjusted to achieve OD600 of 0.12 (˜1×10^6 CFU/mL). The cell suspension was further diluted to achieve 2-4×10^3 CFU/mL in RPMI 1640 medium. […] The final concentration of DMSO was ensured to be <1.25% in all experiments. The MIC values for compounds 7a-24c and CAS were defined as the minimum drug concentration that yielded complete inhibition (also known as MIC-0).
Similarly, the MIC values of compounds 7a-24c, as well as that of the two control drugs against filamentous fungi (strains K-M) were determined as previously described in CLSI document M38-A2. Spores were harvested from sporulating cultures growing on potato dextrose agar (PDA) by filtration through sterile glass wool and enumerated by using a hemocytometer to obtain the desired inoculum size. […] Spore suspensions were added to the wells to afford a final concentration of 5×10^5 CFU/mL. The plates were incubated at 35° C. for 48 h. The MIC values of compounds 7a-24c and CAS against filamentous fungi were based on the complete inhibition of growth when compared to the growth control (MIC-0). […] Each test was performed in triplicate.

hERG channel = hERG channel (Homo sapiens, UniProt Q12809); assay: in vitro; conditions: for IC50 at 60 min: human
hERG channel, sequence (Q12809 whole entry): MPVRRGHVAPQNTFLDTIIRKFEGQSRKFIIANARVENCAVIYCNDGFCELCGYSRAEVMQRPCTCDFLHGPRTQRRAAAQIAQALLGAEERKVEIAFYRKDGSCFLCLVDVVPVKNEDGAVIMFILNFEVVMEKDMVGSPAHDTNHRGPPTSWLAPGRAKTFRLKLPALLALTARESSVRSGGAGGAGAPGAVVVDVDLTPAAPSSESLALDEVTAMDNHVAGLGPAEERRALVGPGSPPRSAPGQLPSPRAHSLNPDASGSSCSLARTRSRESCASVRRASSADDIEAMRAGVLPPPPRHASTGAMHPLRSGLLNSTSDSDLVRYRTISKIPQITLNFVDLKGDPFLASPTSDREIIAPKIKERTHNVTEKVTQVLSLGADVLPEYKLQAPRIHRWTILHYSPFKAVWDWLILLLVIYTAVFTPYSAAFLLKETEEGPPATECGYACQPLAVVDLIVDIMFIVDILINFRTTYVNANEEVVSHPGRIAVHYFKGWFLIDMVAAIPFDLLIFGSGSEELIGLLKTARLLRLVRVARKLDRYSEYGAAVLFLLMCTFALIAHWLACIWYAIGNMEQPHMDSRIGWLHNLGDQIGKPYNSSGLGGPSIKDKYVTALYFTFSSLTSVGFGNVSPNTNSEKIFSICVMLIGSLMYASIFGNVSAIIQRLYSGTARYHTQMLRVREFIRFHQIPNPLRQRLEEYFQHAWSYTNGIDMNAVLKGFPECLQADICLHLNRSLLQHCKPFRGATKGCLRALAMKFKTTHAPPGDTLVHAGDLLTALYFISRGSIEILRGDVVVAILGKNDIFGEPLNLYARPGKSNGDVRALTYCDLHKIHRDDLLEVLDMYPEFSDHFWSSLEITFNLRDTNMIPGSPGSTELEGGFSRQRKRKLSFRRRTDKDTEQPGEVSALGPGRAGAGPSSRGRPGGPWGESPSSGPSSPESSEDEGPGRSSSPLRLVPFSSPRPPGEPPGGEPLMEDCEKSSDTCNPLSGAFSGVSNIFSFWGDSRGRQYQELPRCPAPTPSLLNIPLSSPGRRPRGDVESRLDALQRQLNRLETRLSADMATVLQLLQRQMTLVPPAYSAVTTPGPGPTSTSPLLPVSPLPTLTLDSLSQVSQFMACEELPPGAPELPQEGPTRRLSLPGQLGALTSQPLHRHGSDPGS
Text: The HEK-293 cell line stably expressing the hERG potassium channel (accession number U04270) referred to as hERG-HEK cells were received at passage 11 from Millipore (CYL3006, lot 2, Billerica, MA). [^3H]-Dofetilide (specific activity of 80 Ci/mmol; labeled on the N-methyl group) was obtained from American Radiolabeled Chemicals, St. Louis, MO Other chemicals and solvents were obtained from Sigma-Aldrich (Milwaukee, WI) with exceptions of polyethylenimine (PEI), which was obtained from Fluka/Sigma-Aldrich (St. Louis, MO), and Minimium Essential Medium (MEM) with GlutaMAX™ and phenol red, MEM non-essential amino acids solution (NEAA, 100×), G418 disulfate salt solution, fetal bovine serum (FBS), 0.05% Trypsin-EDTA 1× with phenol red, and Hank's balanced salt solution (HBSS), which were obtained from Life Technologies (Carlsbad, CA).
The hERG-HEK cells were cultured according to the protocol provided by Millipore. Cells were maintained in MEM (with GlutaMAX™ and phenol red) supplemented with 10% FBS, 1% NEAA and 400 μg/mL G418 disulfate salt, and incubated at 37° C. in a humidified atmosphere with 5% CO2. Frozen aliquots of cells were transferred into T-75 cm^2 flasks and allowed to adhere for 4-8 h. The medium was replaced every 2 days. Passages were carried out at least 3 times after thawing at 6-day intervals. Cells were dissociated with trypsin/EDTA and seeded into new 150×25 mm dishes at 2-3×10^6 cells per dish and placed at 30° C., 5% CO2, for 40-48 h prior to membrane preparation. Membrane preparation occurred 6 days after the last passage (passage 20).
Cell membrane preparation was based on previous methods. Cells were rinsed twice with HBSS at 37° C. and collected by scraping the dishes in ˜20 mL of ice-cold 0.32 M sucrose and homogenized on ice with a Teflon pestle using a Maximal Digital homogenizer (Fisher Scientific, Pittsburgh, PA) at ˜280 rpm for 30 sec. Homogenates were centrifuged at 300 g and 800 g for 4 min each at 4° C. Pellets were resuspended in 9 mL of ice-cold Milli-Q H2O and osmolarity restored by addition of 1 mL of 500 mM Tris buffer (pH 7.4) followed by suspension and centrifugation at 20,000 g for 30 min at 4° C. Pellets were homogenized in 2 mL assay buffer (50 mM Tris, 10 mM KCl, and 1 mM MgCl2, 4° C.) and aliquots of cell membrane suspensions were stored at −80° C. and thawed the day of the [^3H]-dofetilide binding assay. Protein content was determined prior to the assay using a Bradford protein assay with bovine albumin as the standard.
[^3H]-Dofetilide binding assays using hERG-HEK293 cell membranes were based on previous methods. Assays determining concentration-response were conducted in duplicate, and three independent assays were performed for each analogue evaluated. Cell membrane suspension (5 μg) was added to duplicate tubes containing assay buffer, 25 μL of a single concentration of N,N-dialkylaminostilbene agent (FIDAS agent) (concentration range of 10 nM-100 μM for each experiment), and 25 μL of [^3H]-dofetilide (5 nM, final concentration) for an assay volume of 250 μL. Binding occurred for 60 min at 25° C. and was terminated by rapid filtration through Whatman GF/B filters, which were pre-soaked in 0.25% PEI overnight, using a Brandel cell/membrane harvester (M-48; Brandel Inc., Gaithersburg, MD). […] Radioactivity was determined by liquid scintillation spectrometry using the Tri-Carb 2100-TR Liquid Scintillation Analyzer (Perkin-Elmer Life and Analytical Sciences).

Compound | antifungal activity (in words) [1] | IC50 at 60 min (hERG channel) | hERG inhibition (in words) (hERG channel)
Fc1ccc(N/N=C/c2ccc(-c3cccc(/C=N/Nc4ccc(F)cc4)c3)cc2)cc1 [Compound 17a] | good activity against the majority of the fungal strains tested | > 30 µM | –
Fc1ccc(N/N=C/c2ccc(-c3cccc(/C=N/Nc4ccc(F)cc4F)c3)cc2)c(F)c1 [Compound 20a] | overall antifungal activity against all the strains tested; also recorded: good activity against the majority of the fungal strains tested | – | –
COc1ccc(N/N=C/c2ccc(-c3cccc(/C=N/Nc4ccc(OC)cc4)c3)cc2)cc1 [Compound 15a] | – | > 30 µM | –
Fc1cccc(N/N=C/c2ccc(-c3cccc(/C=N/Nc4cccc(F)c4)c3)cc2)c1 [Compound 12a] | good activity | – | –
C/C(=N\Nc1ccc(F)cc1)c1ccc(-c2ccc(/C(C)=N/Nc3ccc(F)cc3)cc2)cc1 [Compound 17c, 4,4′-bis((E)-1-(2-(4-fluorophenyl)hydrazono)ethyl)-1,1′-biphenyl] | – | > 30 µM | no hERG inhibition
COc1ccc(N/N=C/c2ccc(-c3ccc(/C=N/Nc4ccc(OC)cc4)cc3)cc2)cc1 [Compound 15b] | good activity against the majority of the fungal strains tested | > 30 µM | –
